What all share (assay type): cell-based
Assay [1] relates to Escherichia coli ATCC 8739. Put plainly: Minimal Kill Concentration Assay (MKCA), E. coli. Conditions: for MBC: Escherichia coli, ATCC8739, 20 min, read-out: E. coli MKC (ppm). Here is the method: (§1) The MKC assay is a 96 well plate method to determine the minimum concentration of a test material or composition needed to kill Gram-negative and Gram-positive bacteria (Escherichia coli ATCC 8739 and Staphylococcus aureus ATCC 6538, respectively). The bacterial suspensions are prepared from 10× freezer stocks with 15% glycerol. The freezer stocks are centrifuged at 13,000×g (Eppendorf Centrifuge […] No. 541705483) for 1 minute. The supernatant is removed, and the cell pellet is resuspended in 1 mL saline (Sodium chloride solution 0.9%, Cytiva REF: Z1376), and then transferred to 9 mL saline. The target cfu/ml is 10^8, which is confirmed via serial diluting and plating on TSA plates (Tryptic Soy Agar-Sigma-Aldrich Cat #22091). Then 50 μL (25 μL if low on test materials) of bacteria is added to each well of a 96 well 0.5 mL V-Bottom plate (Greiner bio-one REF: 786201) to make a bacteria plate, one separate plate for each bacterium. The dilutions of the test compounds are prepared in a separate 96 well plate. The test compounds are tested at six dilutions in duplicates or with no replication diluted across the entire plate. The test compounds are prepared in Dimethyl Sulfoxide (Sigma Aldrich GR ACS Cat. No: MX1458-6) or sterile water at 2× the intended test concentration, and then serially diluted in the appropriate vehicle 1:2 across the plate using a multichannel. 50 μL (25 μL if low on test materials) from the test compound plate is added to each well in the bacteria plate all at once using an Integra VIAFLOW 96 channel pipette (Model: VIAFLO 96) and the Integra 300 μL Head (Part No. 6103). With addition of the 2× compounds bacteria plate, the compounds are diluted to a 1× test concentration. The addition of the test compounds to the bacteria wells starts the 20-minute contact time. The plates are mixed well using a Mix-Mate (Eppendorf SE). After 20 minutes, 1 μL from each well of the bacteria plate is transferred to premade Tryptic Soy Agar (TSA) plates (OmniTray Cell Culture Treated w/Lid Sterile, Cat. No: 165218) for spot plating using the Integra VIAFLOW 96 with the Integra 12.5 μL head (Part No. 6101). Then 4 μL from each well of the bacteria/compound plate is transferred to another 96 well plate containing 36 μL of neutralizer broth Modified Letheen Broth (BD Difco Letheen Broth, Modified REF 263010). The contact time is stopped at 20 minutes once the compound plate is neutralized. The plates are mixed well using a Mix-Mate and then 1 μL of the neutralizer+sample mix is transferred to a TSA OmniTray plate using the Integra VIAFLOW and Integra 12.5 μL head. The TSA spot plates are then incubated overnight for 20 hours at 37° C. in an Incubator. This process is done for both bacteria species. After overnight incubation, the plates are removed from the incubator and the results recorded by observing which dilutions had bacterial kill/growth. The last dilution that had kill for both replicates is recorded as the MKC. A positive control of Benzalkonium chloride (Sigma Aldrich Cat. No.: 12060-5G) and vehicle controls are always included in the test.

The test system of assay [2] is Staphylococcus aureus ATCC 6538. Put plainly: Minimal Kill Concentration Assay (MKCA), S. aureus. Conditions: for minimal kill concentration (20-minute contact) / S. aureus MKC (ppm): 20-minute contact time. On the procedure:
as §1

Assay [3] deals with Staphylococcus aureus ATCC #6538. Put plainly: Minimum Inhibitory Concentration (MIC) Assay with Minimum Biocidal Concentration (MBC). Particulars: for MIC / MBC: Staphylococcus aureus, ATCC6538, 24 h; for MIC: read-out: S. aureus MIC (ppm); for MBC: read-out: S. aureus MBC (ppm). Here is the method:
The Minimum Inhibitory Concentration (MIC) Assay is a 96-well high throughput method that determines the minimum concentration of an active required to inhibit the growth of microorganisms. Organism preparation: Compounds were evaluated against the following microorganisms: Staphylococcus aureus ATCC #6538 (American Type Culture Collection, Manassas, Virginia, USA). To prepare bacteria solutions, bacteria were streaked on Tryptic Soy Agar (TSA) and incubated at 30-35° C. for 18-24 hrs. Confluent growth was transferred to saline (0.85% NaCl) and turbidometrically adjusted to a target concentration of 10^7-10^8 CFU/ml. This inoculum solution was further diluted 1:1000 in Tryptic Soy Broth (pH 7) for assay use. Assay: Two-fold serial dilutions were prepared in Dimethylsulfoxide (DMSO, Thermo Scientific Pierce DMSO, Sequencing Grade) or sterile water for each test sample. In a sterile 96-well plate, each dilution was further diluted in broth inoculum such that each well contained 5% dilution and 95% broth inoculum. Bacteria plates were incubated on an orbital shaker (Heidolph Titramax 1000 Vibrating Platform Shaker, 200-300 rpm) for 24±2 hrs at 35° C. After incubation, the optical density (OD) of each well was measured in a spectrophotometer (Victor Nivo Multimode Plate Reader) at 600 nm. […] To determine the Minimum Biocidal Concentration (MBC), 2 ul from each well was pipetted onto neutralizing agar (Modified Letheen Agar with Tween) and incubated for 24 hrs at 30-35° C. The MBC was determined as the most dilute concentration with no visible growth.

Where [4] appears, read: Table 1.4b, solvent water, 20-minute contact time.
Setting [5] is: Staphylococcus aureus, ATCC6538, 20 min, Table 1.4b, solvent water, read-out: S. aureus MKC (ppm).
Setting [6] is: Table 4, derivatized rhamnolipids, solvent DMSO, 20-minute contact time.
Where [7] appears, read: Staphylococcus aureus, ATCC6538, 20 min, Table 4, derivatized rhamnolipids, solvent DMSO, read-out: S. aureus MKC (ppm).

In brackets after ≈: the same amount, converted by molar mass. Like-named read-outs stand apart in the source and are kept apart here. Where only a bound is given, the exact number is not on record here.

For `CCCCCCCC(O)CC(=O)O` (racemic) [(±)-3-Hydroxydecanoic acid, reference compound], in assay [1] (setting [4]), the MBC is 753 µg/mL (≈ 4 mM). Moreover, the minimal kill concentration (20-minute contact) in assay [2] (setting [5]) amounted to 753 µg/mL. The MIC in assay [3] worked out at 1130 µg/mL (≈ 6 mM).

For “N-benzyl-3-(((2R,3R,4R,5R,6S)-4,5-dihydroxy-6-methyl-3-(((2R,3S,4S,5S,6S)-3,4,5-trihydroxy-6-methyltetrahydro-2H-pyran-2-yl)oxy)tetrahydro-2H-pyran-2-yl)oxy)decanamide”, the “E. coli MKC (ppm)” value in assay [1] (setting [6]) is reported as over 5696.9 ppm. Also, the “S. aureus MKC (ppm)” value in assay [2] (Table 4, derivatized rhamnolipids, solvent DMSO) is given as over 5696.9 ppm. Besides, in assay [3] (Table 5, solvent DMSO), the “S. aureus MBC (ppm)” value was over 2278.3 ppm and the “S. aureus MIC (ppm)” value is reported as 2278.8 ppm.

For `CCCCCCCCCC(O)CC(=O)O` (racemic) [DL-β-Hydroxylauric acid, reference compound], the “E. coli MKC (ppm)” value in assay [1] (setting [4]) is over 865 ppm. Also, the “S. aureus MKC (ppm)” value in assay [2] (Table 1.4b, solvent water) is reported as over 865 ppm. Further, the “S. aureus MIC (ppm)” value in assay [3] (Table 1.5, solvent DMSO, >=50% inhibition, 24 hrs at 35° C.) stood at 325 ppm. In addition, the “S. aureus MBC (ppm)” value in assay [3] (Table 1.5, solvent DMSO, no visible growth) was determined as 650 ppm.

With `CCCCCCCC(CC(=O)O)O[C@@H]1O[C@@H](C)[C@H](O)[C@@H](O)[C@H]1O[C@@H]1O[C@H](C)C(O)[C@@H](O)[C@H]1O` (stereo partly drawn) [3-(((2R,3R,4R,5R,6S)-4,5-dihydroxy-6-methyl-3-(((2S,3R,4R,6R)-3,4,5-trihydroxy-6-methyltetrahydro-2H-pyran-2-yl)oxy)tetrahydro-2H-pyran-2-yl)oxy)decanoic acid], in assay [1] (setting [6]), the MBC is over 4810 µg/mL. Moreover, in assay [2] (setting [7]), the minimal kill concentration (20-minute contact) was over 4810 µg/mL. For the same compound, in assay [3] (Table 5, solvent DMSO), the MBC is over 1920 µg/mL and the MIC is over 1920 µg/mL.

As for `CCCCCCCC(CC(=O)O)O[C@@H]1O[C@@H](C)[C@H](O)[C@@H](O)[C@H]1O[C@@H]1O[C@H](C)C(O)[C@@H](O)[C@H]1O` (stereo partly drawn) [calcium 3-(((2R,3R,4R,5R,6S)-4,5-dihydroxy-6-methyl-3-(((2S,3R,4R,6R)-3,4,5-trihydroxy-6-methyltetrahydro-2H-pyran-2-yl)oxy)tetrahydro-2H-pyran-2-yl)oxy)decanoate], the MBC in assay [1] is over 9390 µg/mL; in assay [2] (Staphylococcus aureus, ATCC6538, 20 min, read-out: S. aureus MKC (ppm)), over 9390 µg/mL; in assay [3] (Table 5, solvent DMSO) it was over 4000 µg/mL. In assay [3] (Table 5, solvent DMSO), the MIC is over 4000 µg/mL.

Turning to `CCCCCCCC(CC(=O)N(C)OC)O[C@@H]1O[C@@H](C)[C@H](O)[C@@H](O)[C@H]1O[C@@H]1O[C@@H](C)[C@H](O)[C@@H](O)[C@H]1O` (stereo partly drawn) [3-(((2R,3R,4R,5R,6S)-4,5-dihydroxy-6-methyl-3-(((2S,3R,4R,5R,6S)-3,4,5-trihydroxy-6-methyltetrahydro-2H-pyran-2-yl)oxy)tetrahydro-2H-pyran-2-yl)oxy)-N-methoxy-N-methyldecanamide], the MBC in assay [1] (setting [6]) was over 5240 µg/mL; in assay [3] (Table 5, solvent DMSO) it was over 2090 µg/mL. Further, the minimal kill concentration (20-minute contact) in assay [2] (setting [7]) is over 5240 µg/mL. The minimum inhibitory concentration (MIC) in assay [3] (Table 5, solvent DMSO) amounted to 2090 µg/mL (≈ 4 mM).

With `CCCCCCCC(CC(=O)NC1CCCCC1)O[C@@H]1O[C@@H](C)[C@H](O)[C@@H](O)[C@H]1O[C@@H]1O[C@@H](C)[C@H](O)[C@@H](O)[C@H]1O` (stereo partly drawn) [N-cyclohexyl-3-(((2R,3R,4R,5R,6S)-4,5-dihydroxy-6-methyl-3-(((2S,3R,4R,5R,6S)-3,4,5-trihydroxy-6-methyltetrahydro-2H-pyran-2-yl)oxy)tetrahydro-2H-pyran-2-yl)oxy)decanamide], in assay [1] (setting [6]), the MBC was over 5620 µg/mL. Moreover, the minimal kill concentration (20-minute contact) in assay [2] (setting [7]) is over 5620 µg/mL. Moreover, in assay [3] (Table 5, solvent DMSO), the MBC is over 2250 µg/mL and the minimal inhibitory concentration (MIC) is over 2250 µg/mL.

As to `CCCCCCCC(CC(=O)NCC(CC)CCCC)O[C@@H]1O[C@@H](C)[C@H](O)[C@@H](O)[C@H]1O[C@@H]1O[C@@H](C)[C@H](O)[C@@H](O)[C@H]1O` (stereo partly drawn) [3-(((2R,3R,4R,5R,6S)-4,5-dihydroxy-6-methyl-3-(((2S,3R,4R,5R,6S)-3,4,5-trihydroxy-6-methyltetrahydro-2H-pyran-2-yl)oxy)tetrahydro-2H-pyran-2-yl)oxy)-N-(2-ethylhexyl)decanamide], the MBC in assay [1] (setting [6]) was over 5920 µg/mL. Besides, the minimal kill concentration (20-minute contact) in assay [2] (setting [7]) stood at 2960 µg/mL. Besides, in assay [3] (Table 5, solvent DMSO), the MBC came out at 592 µg/mL (≈ 1 mM) and the MIC amounted to 296 µg/mL (≈ 0.5 mM).

As to `CCCCCCCC(CC(=O)N(CCCC)CCCC)O[C@@H]1O[C@@H](C)[C@H](O)[C@@H](O)[C@H]1O[C@@H]1O[C@@H](C)[C@H](O)[C@@H](O)[C@H]1O` (stereo partly drawn) [N,N-dibutyl-3-(((2R,3R,4R,5R,6S)-4,5-dihydroxy-6-methyl-3-(((2S,3R,4R,5R,6S)-3,4,5-trihydroxy-6-methyltetrahydro-2H-pyran-2-yl)oxy)tetrahydro-2H-pyran-2-yl)oxy)decanamide], in assay [1] (setting [6]), the MBC was determined as 5920 µg/mL (≈ 10 mM). Also, the minimal kill concentration (20-minute contact) in assay [2] (setting [7]) was 2960 µg/mL. Further, in assay [3] (Table 5, solvent DMSO), the MBC turned out to be 296 µg/mL (≈ 0.5 mM) and the MIC stood at 296 µg/mL (≈ 0.5 mM).

For `CCCCCCCC(CC(=O)NCCO[Si](C)(C)C(C)(C)C)O[C@@H]1O[C@@H](C)[C@H](O)[C@@H](O)[C@H]1O[C@@H]1O[C@@H](C)[C@H](O)[C@@H](O)[C@H]1O` (stereo partly drawn) [N-(2-((tert-butyldimethylsilyl)oxy)ethyl)-3-(((2R,3R,4R,5R,6S)-4,5-dihydroxy-6-methyl-3-(((2S,3R,4R,5R,6S)-3,4,5-trihydroxy-6-methyltetrahydro-2H-pyran-2-yl)oxy)tetrahydro-2H-pyran-2-yl)oxy)decanamide], the MBC in assay [1] (setting [6]) was over 6370 µg/mL. In addition, the minimal kill concentration (20-minute contact) in assay [2] (setting [7]) was over 6370 µg/mL. In assay [3] (Table 5, solvent DMSO), the MBC was found to be 637 µg/mL (≈ 0.999 mM) and the MIC was 319 µg/mL (≈ 0.5 mM).

With `CCCCCCCC(CC(=O)N(C)C)O[C@@H]1O[C@@H](C)[C@H](O)[C@@H](O)[C@H]1O[C@@H]1O[C@H](C)C(O)[C@@H](O)[C@H]1O` (stereo partly drawn) [3-(((2R,3R,4R,5R,6S)-4,5-dihydroxy-6-methyl-3-(((2S,3R,4R,6R)-3,4,5-trihydroxy-6-methyltetrahydro-2H-pyran-2-yl)oxy)tetrahydro-2H-pyran-2-yl)oxy)-N,N-dimethyldecanamide], the MBC in assay [1] (setting [6]) was over 5070 µg/mL. Also, the minimal kill concentration (20-minute contact) in assay [2] (setting [7]) is over 5070 µg/mL. Also, in assay [3] (Table 5, solvent DMSO), the MBC is over 508 µg/mL and the MIC is over 508 µg/mL.

Take `CCCCCCCCC[C@@H](O)CC(=O)O` [(3R)-3-hydroxydodecanoic acid, reference compound]: in assay [1] (setting [4]), the MBC is over 865 µg/mL. The minimal kill concentration (20-minute contact) in assay [2] (setting [5]) is 865 µg/mL.

As to `CCCCCC(O)CC(=O)O` (racemic) [(±)-3-Hydroxyoctanoic acid, reference compound], in assay [1] (setting [4]), the MBC is over 641 µg/mL. Moreover, the minimal kill concentration (20-minute contact) in assay [2] (setting [5]) is over 641 µg/mL.

One may read the MIC as the least concentration at which growth counts as inhibited.

(Values after patent US20260000596A1, “SEMI-SYNTHETIC RHAMNOLIPIDS” (The Procter & Gamble Company, priority 2024, published 2026).)
